A short description of data set [1]: Stability of sodium 4-phenylbutyrate in multi-dose type containers (liquid chromatography). The format is physicochemical. As to conditions: PE, PP, PET; 60° C., 1 week (Table 1-2). As to the method: Each aqueous composition (formulations 1-0 to 1-4) shown in Table 1-1 was prepared through a usual method to fill 5-mL volume multi-dose type containers made of polyethylene (PE), polypropylene (PP), and polyethylene terephthalate (PET) by 5 mL each.
Liquid chromatography was used to quantify sodium 4-phenylbutyrate. 10 μL of 0.05 w/v % sodium 4-phenylbutyrate solution was used as a standard solution, and 10 μL of a formulation diluted 10 times with a mobile phase was used as a sample solution. The standard solution and the sample solution were each placed on a reverse-phase column (YMC-Pack ODS-A (I.D. 4.6 mm×150 mm, 5 μm) manufactured by YMC CO., LTD.) maintained at 30° C., and eluted with a 0.2% formic acid solution-acetonitrile mixture as a mobile phase. Detection was performed with an ultraviolet absorptiometer (measurement wavelength: 260 nm). Thereafter, the peak area of sodium 4-phenylbutyrate was measured for the standard solution and the sample solution, and the concentration of sodium 4-phenylbutyrate was determined for each formulation immediately after preparation and after storage at 60° C. for 1 week using Equation 1 below.

Data set [2] can be described thus: Stability of sodium 4-phenylbutyrate in unit-dose type containers (liquid chromatography). The format is physicochemical. The settings on record: PE, COC/PE; 40° C., 1 month (Table 1-5). As to the method: An aqueous composition (formulation 2-1) shown in Table 1-4 was prepared through a usual method to fill a 0.5-mL volume polyethylene (PE) unit-dose type container and a unit-dose type resin container made of a mixture of a cyclic olefin copolymer (COC) and polyethylene (PE) by 0.5 mL each.
Liquid chromatography was used to quantify sodium 4-phenylbutyrate. 20 μL of 0.02 w/v % sodium 4-phenylbutyrate solution was used as a standard solution, and 20 μL of a formulation 2-1 diluted 10 times with a mobile phase was used as a sample solution. The standard solution and the sample solution were each placed on a reverse-phase column (YMC-Pack ODS-A (I.D. 4.6 mm×150 mm, 5 μm) manufactured by YMC CO., LTD.) maintained at 30° C., and eluted with a 0.2% formic acid solution-acetonitrile mixture as a mobile phase. Detection was performed with an ultraviolet absorptiometer (measurement wavelength: 260 nm). Thereafter, the peak area of sodium 4-phenylbutyrate was measured for the standard solution and the sample solution, and the concentration of sodium 4-phenylbutyrate was determined for the formulation 2-1 immediately after preparation and after storage at 40° C. for 1 month using Equation 3 below.

On to `O=C([O-])CCCc1ccccc1.[Na+]` [sodium 4-phenylbutyrate, Sodium 4-phenylbutyrate], for which the “Stability of sodium 4-phenylbutyrate itself among the container resins” value in data set [1] and in data set [2] was “no difference in stability” each time.

The record behind these values is patent US20250213510A1, “Aqueous Composition” (TSUBOTA LABORATORY, Inc., priority 2022, published 2025).
